Measured values: patent US6998395B2, “Administration of estradiol metabolites for the treatment or prevention of obesity, metabolic syndrome, diabetes, and vascular and renal disorders” (University of Pittsburg,, priority 2001, dated 2006)

Assays:
male ZSF1 rats [1] = test: Treatment of male ZSF1 rats for 24 weeks with 2-hydroxyestradiol or 2-methoxyestradiol; type: in vivo, rat
Description: Male ZSF1 rats were treated continuously for 24 weeks with polyethylene glycol 400 (PEG 400) (Sigma, St. Louis, Mo.) or one of three doses of 2-hydroxyestradiol or 2-methoxyestradiol (Steraloids, Inc. Newport, R.I.) dissolved in PEG 400. The three doses were 1 ug/kg/hr, 3 ug/kg/hr or 10 ug/kg/hr. Female ZSF1 rats were treated continuously for 24 weeks with either PEG 400 or 10 ug/kg/hr of 2-hydroxyestradiol. Female ZSF1 rats were ovarectomized at 11 weeks of age. For all animals, both male and female, treatments with estradiol metabolites were begun at approximately 13 weeks of age. One group of male ZSF1 rats received only PEG 400 but were pair fed to receive the same daily food intake as the male ZSF1 rats treated with 10 ug/kg/hr 2-hydroxyestradiol. Treatment was administered via subcutaneous implanted pumps (Alzet Osmotic Pump, Model 2ML4, Alza Corporation, Palo Alto, Calif.). The study was designed to evaluate treatment effects and dose responses on body weight, food intake, water intake, urine output, urinary protein excretion, cholesterol levels, plasma glucose levels and glucose tolerance.
Stock solutions of both 2-hydroxyestradiol and 2-methoxyestradiol were made by dissolving the required amount of estradiol metabolite in PEG 400. This solution was diluted in PEG 400 to deliver the three required doses based on the mean weight of each treatment group and the stated volume delivery rate for each lot of osmotic pumps in the study. This stock solution was prepared fresh prior to each osmotic pump implantation in each group. The control solution of PEG 400 was created in the same manner.
All treatments were administered via a subcutaneously implanted osmotic pump (Alzet Osmotic Pump, Model 2ML4, Alza Corporation, Palo Alto, Calif.). Each lot of osmotic pumps were delivered with the stated rate of delivery and formulation concentrations were adjusted to ensure delivery of 1,3, or 10 ug/kg/hr based on the stated rate of delivery of each lot. Doses were adjusted for the mean weight of the animals in the treatment group obtained 24 hours prior to implantation of the osmotic minipump.
Animals were anesthetized prior to implantation of an osmotic minipump with halothane and oxygen (2.5 liter/min) delivered by a Fluotec 3 anesthetic device (Ohmeda, Steeton, UK). After lightly anesthetizing each animal, implantation was accomplished by shaving the back and creating a half-inch incision in which to insert the osmotic minipump. The incision was then closed with wound clips that were removed in seven days. Osmotic minipumps were replaced at 33-day intervals and each time a particular animal received an osmotic minipump, the insertion point was changed.
Metabolic cages (Nalgene, Rochester, N.Y.) were used in this study. Animals were placed in metabolic cages for 48 hours. The first 24-hour period was considered an acclimation period, while food and fluid intake and urine volume were measured during the second 24-hour period. Additionally, a tail vein sample was obtained to measure blood glucose, sodium, potassium, albumin and creatinine. The blood was further analyzed to assess creatinine clearance, fractional sodium excretion, fractional potassium excretion and fractional albumin excretion. In addition, the following criteria were also assessed while the animals were in the metabolic cages: body weight, feed intake, water intake, urine output, urinary protein, urinary albumin, urinary glucose, urinary sodium and urinary potassium.
Body weights were assessed 24 hours before pump implantation and those weights were used to calculate the dosage of drug or vehicle to be given to each animal based on the mean body weight of each group. Animals were weighed approximately once every two months prior to being placed in a metabolic cage.
Food intake was measured by filling the food containers with standard powder laboratory food up to a total weight of 250 grams. […]

male ZSF1 rats [2] = test: as above; type: in vivo, rat; conditions: 10 ug/kg/hr, 28 weeks, versus control animals
[3] = Kernan et al., 2000; cited from earlier work
rats = conditions: Oparil et al., Circulation 95:1301 (1997); cited from earlier work
[4] = male, 10 ug/kg/hr, 24 weeks, versus control animals
[5] = male, 1, 3 or 10 ug/kg/hr s.c. osmotic pump, 24 weeks, versus control

With COc1cc2c(cc1O)CC[C@@H]1[C@@H]2CC[C@]2(C)[C@@H](O)CC[C@@H]12 [2-methoxyestradiol, estra-1,3,5 (10)-triene-2-methoxy-3,17-diol (17β)] the “Leptin levels (FIG. 11)” value (male ZSF1 rats [1]; male, 10 ug/kg/hr, 20 weeks, versus control animals) was “clearly reduced”, the “24-hour urine output (FIG. 13)” value (male ZSF1 rats [1]; [4]) was “lower” and the “24-hour water intake (FIG. 12)” value (male ZSF1 rats [1]; [4]) was “lower”. The “Blood urea nitrogen (FIG. 10)” value (male ZSF1 rats [1]; male, 10 ug/kg/hr, 24 weeks, versus control groups) was “lower”, the “Plasma level of glucose after administration of 2 g/4 ml/kg glucose (oral glucose tolerance test, FIGS. 8 and 9)” value (male ZSF1 rats [1]; male, 10 ug/kg/hr, treated for 14 to 15 weeks, versus control groups) was “lower” and the “Body weight gain (FIGS. 4 and 5)” value (male ZSF1 rats [1]; [5]) was “less body weight gain”. For the same compound, the Food intake (male ZSF1 rats [1]; [5]) was “lower food intake”, the “Urinary protein excretion (FIG. 7)” value (male ZSF1 rats [1]; male, 1, 3 or 10 ug/kg/hr, after 24 weeks of treatment, versus control animals) was “lower” and the “Glycated hemoglobin (HbA1c) (FIG. 14)” value (male ZSF1 rats [2]) was “lower”.

For CC(N)C(O)c1ccccc1 (stereo not drawn) [phenylpropanolamine], the “Adverse effect (stroke)” value [3] is given as “causes stroke”.

In the case of C[C@]12CC[C@@H]3c4ccc(O)cc4CC[C@H]3[C@@H]1CC[C@@H]2O [17β-estradiol], the “Body weight of rats” value (rats) is given as “reduction” and the Vascular protection (rats) is given as “vascular protection”.
